Measurements published in patent US20140005230A1 (priority 2011, published 2014).

Experiments:
Phytophthora infestans = format: in vivo; conditions: tomatoes, preventive spray, 10 ppm of active ingredient, evaluated 3 days after inoculation
Plasmopara viticola = assay: Plasmopara test (grapevines) / preventive; format: in vivo; conditions: preventive spray, 100 ppm of active ingredient, evaluated 6 days after inoculation
Protocol: Plasmopara Test (Grapevines)/Preventive
To produce a suitable preparation of active compound, 1 part by weight of active compound is mixed with the stated amounts of solvent and emulsifier, and the concentrate is diluted with water to the desired concentration.
To test for preventive activity, young plants are sprayed with the preparation of active compound at the stated rate of application. After the spray coating has dried on, the plants are inoculated with an aqueous spore suspension of Plasmopara viticola and then remain for 1 day in an incubation cabinet at approximately 20° C. and a relative atmospheric humidity of 100%. The plant is subsequently placed for 4 days in a greenhouse at approximately 21° C. and a relative atmospheric humidity of approximately 90%. The plants are then misted and placed for 1 day in an incubation cabinet.
The test is evaluated 6 days after the inoculation. 0% means an efficacy which corresponds to that of the untreated control, while an efficacy of 100% means that no disease is observed.

[1] = LogP by HPLC on reversed phase columns (EEC directive 79/831 Annex V.A8); format: physicochemical; conditions: pH 2.7, 0.1% formic acid in water / acetonitrile gradient
Protocol: Measurement of Iog P values was performed according EEC directive 79/831 Annex V.A8 by HPLC (High Performance Liquid Chromatography) on reversed phase columns with the following method:
Measurement of LC-MS was done at pH 2.7 with 0.1% formic acid in water and with acetonitrile (contains 0.1% formic acid) as eluent with a linear gradient from 10% acetonitrle to 95% acetonitrile.
Calibration was done with not branched alkan2-ones (with 3 to 16 carbon atoms) with known log P-values (measurement of log P values using retention times with linear interpolation between successive alkanones). lambda-maX-values were determined using UV-spectra from 200 nm to 400 nm and the peak values of the chromatographic signals.

Pythium ultimum = assay: Pythium test (cotton) / seed treatment; format: in vivo; conditions: 50 g/dt seed of active ingredient, greenhouse 7 days, emerged seedlings
Protocol: Pythium Test (cotton)/Seed Treatment
The test is performed under greenhouse conditions.
Cotton seeds, treated with the active compound or compound combinations, solved in N-methyl-2-pyrrolidon and diluted with water to the desired dosages, were sown in 6*6 cm pots containing 4 cm of a 1:1 mix of steamed field soil and sand.
Perlite was incubated with mycelium fragments of Pythium ultimum. 1 ml of infected perlite was scattered between the treated cotton seeds. Seeds were then covered by light expanded clay aggregate. Pots were incubated in the greenhouse 7 days at 20° C. and 80% relative humidity.
Assessment consisted of counting of emerged seedlings. 0% means an efficacy which corresponds to that of the control, while an efficacy of 100% means that all seedlings have emerged.

SMILES	Eff. % (Phytophthora infestans)	Eff. % (Plasmopara viticola)	LogP [1]	chromatographic logP ([1]; reversed phase HPLC column)	Eff. % (Pythium ultimum)
CC(=CC1CCCC1)C(=O)Nc1nc(CON=C(c2ccccc2)c2nnnn2C)cs1 [Example 26]	95%	90%	4.09		
CC(=CC(=O)Nc1nc(CON=C(c2ccccc2)c2nnnn2C)cs1)C1CC1 [Example 18]			3.41		
Cn1nnnc1C(=NOCc1csc(NC(=O)C=CC2CCCCC2)n1)c1ccccc1 [Example 29]	95%		2.5		
Cn1nnnc1C(=NOCc1csc(NC(=O)C=C(c2ccccc2)C2CC2)n1)c1ccccc1 [Example 30]	85%		2.36		
CC(=CC(=O)Nc1cccc(CON=C(c2ccccc2)c2nnnn2C)n1)C1CC1 [Example 2]	100%	84%	3.29		
CC(=CC1CC1)C(=O)Nc1nc(CON=C(c2ccccc2)n2nnnc2C)cs1 [Example 11]	95%		3.52		
Cc1nnnn1C(=NOCc1csc(NC(=O)C=C(c2ccccc2)C2CC2)n1)c1ccccc1 [Example 17]			2.38		
CC(=CC(=O)Nc1nc(CON=C(c2ccccc2)c2nnnn2C)cs1)C1CCCCC1 [Example 20]	80%		4.66		
Cc1nnnn1C(=NOCc1csc(NC(=O)C=CC2CCCCC2)n1)c1ccccc1 [Example 16]	90%		2.53		
Cn1nnnc1C(=NOCc1csc(NC(=O)C=CC2CC2)n1)c1ccccc1 [Example 24]	95%	90%	3.04		
CC(C)=CC(=O)Nc1nc(CON=C(c2ccccc2)n2nnnc2C)cs1 [Example 12]	80%		3.15		
Cn1nnnc1C(=NOCc1cccc(NC(=O)C=CC2CCCCC2)n1)c1ccccc1 [Example 6]	95%	93%	4.36		
Cc1nnnn1C(=NOCc1csc(NC(=O)C=CC2CC2)n1)c1ccccc1 [Example 13]			3.09		
Cc1nnnn1C(=NOCc1csc(NC(=O)C=C(c2ccccc2)C2CC2)n1)c1ccccc1 [Example 9]	85%		4.26		
Cc1nnnn1C(=NOCc1cccc(NC(=O)C=CC2CCCCC2)n1)c1ccccc1 (mixture of isomers) [Example 32]	95%		4.46		
CC(=CC(=O)Nc1cccc(CON=C(c2ccccc2)c2nnnn2C)n1)C1CC1 [Example 1, 3-cyclopropyl-N-{6-[({[(1-methyl-1H-tetrazol-5-yl)(phenyl)methylene]amino}oxy)methyl]pyridin-2-yl}but-2-enamide]	95%	97%		3.48	100%
CC(=CC(=O)Nc1cccc(CON=C(c2ccccc2)c2nnnn2C)n1)C1CC1 [Example 3]	95%		3.46		
CC(=CC(=O)Nc1nc(CON=C(c2ccccc2)n2nnnc2C)cs1)C1CC1 [Example 7]			3.46		
CC(C)=CC(=O)Nc1nc(CON=C(c2ccccc2)c2nnnn2C)cs1 [Example 28]	90%		3.08		
CC(=CC(=O)Nc1cccc(CON=C(c2ccccc2)n2nnnc2C)n1)C1CC1 (mixture of isomers) [Example 31]	93%		3.59		
Cn1nnnc1C(=NOCc1csc(NC(=O)C=C(c2ccccc2)C2CC2)n1)c1ccccc1 [Example 22]	80%		4.21		
CC(=CC(=O)Nc1nc(CON=C(c2ccccc2)c2nnnn2C)cs1)C1CCCCC1 [Example 21]			4.44		
Cc1nnnn1C(=NOCc1csc(NC(=O)C=C(C2CC2)C2CC2)n1)c1ccccc1 [Example 15]			3.83		
CC(=CC(=O)Nc1cccc(CON=C(c2ccccc2)c2nnnn2C)n1)C1CCCCC1 [Example 5]	90%	91%	4.82		
CC(=CC1CC1)C(=O)Nc1nc(CON=C(c2ccccc2)c2nnnn2C)cs1 [Example 27]	95%		3.44		
CC(=CC1CCCC1)C(=O)Nc1nc(CON=C(c2ccccc2)n2nnnc2C)cs1 [Example 10]	80%		4.16		
Cn1nnnc1C(=NOCc1csc(NC(=O)C=C(C2CC2)C2CC2)n1)c1ccccc1 [Example 23]	85%		3.76		
Cc1nnnn1C(=NOCc1cccc(NC(=O)C=C(c2ccccc2)C2CC2)n1)c1ccccc1 [Example 33]	95%		4.41		
